Data on four molecules can be found in patent publication US6310065A, “Pyridazinone hydrochloride compound and method for producing the same” (Nissan Chemical Industries, Ltd., priority 1998, dated 2001).

Structures can show the parent of a compound that is named as a salt.

Series [1] in a line: Physical properties and stability of the hydrochlorides, stated in words.
Series [2] can be described thus: Pharmaceutical effect, stated in words.
Series [3] is described as follows: Hygroscopic test under conditions of 25° C. and 75% RH (Test Example 1). In kind it is physicochemical. The method, then:
Hygroscopic test of 2-hydrochloride and 3/2-hydrochloride under conditions of 25° C. and 75% RH
A humidity conditioning solution was prepared by using a saturated aqueous solution of sodium chloride, and the solution thus prepared was placed in a humidistat, and temperature-moisture conditions at 25° C. were adjusted. 0.4 g of 2-hydrochloride and 0.2 g of 3/2-hydrochloride were weighed respectively in a weighing bottle to prepare test samples, and the test samples were subjected to hygroscopic test under the above adjusted temperature-moisture conditions to measure a water content and a decomposed material content as a lapse of time and to compare hygroscopicity and stability of the test samples.

Series [4] can be described thus: Comparison of biological dynamics in a dog, 10 mg/kg oral administration by capsules. In kind it is in vivo. The conditions noted are these: for AUC (0-.infin.) / Cmax: 10 mg/kg oral administration by capsules, 10 mg/kg. The method, then: Further, the compound (1) and its 3/2-hydrochloride (2) were compared with regard to biological dynamics in a dog. […] Result: (10 mg/kg oral administration by capsules)

[5] abbreviates: 10 mg/kg oral by capsules, ratio to compound (1).

For `COc1ccc(CNc2cn[nH]c(=O)c2Cl)cc1OCC(=O)N1CCN(Cc2ccccc2)CC1` [1-hydrochloride], in series [1], the “electrostatic charging of the crystal” value was “easily electrostatically charged”, the hygroscopicity entry is recorded as “high hygroscopicity” and the solubility result is on record as “poor in solubility”.

As for `COc1ccc(CNc2cn[nH]c(=O)c2Cl)cc1OCC(=O)N1CCN(Cc2ccccc2)CC1` [2-hydrochloride, 2-Hydrochloride of 4-chloro-5-[3-(4-benzylpiperazin-1-yl)carbonylmethoxy-4-methoxybenzylamino]-3 (2H) -pyridazinone], the pharmaceutical effect entry in series [2] was “excellent pharmaceutical effect”. For the same molecule, the Water content stood at 0.93% in series [3] (Time 0), 4.17% in series [3] (Time 1), 5.60% in series [3] (Time 24) and 9.45% in series [3] (Time 48). The “Increased decomposed material content” value is on record as 1.75% in series [3] (Time 24) and 11.78% in series [3] (Time 48). Besides, in series [3] (solid, 75% rh, Time 1, read-out: Increased decomposed material content), the degraded is 0.08%. Moreover, the hygroscopicity entry in series [1] is reported as “highly hygroscopic”. In addition, the “decomposition in a methanol solvent” value in series [1] (methanol solvent) was “rapidly decomposed in a methanol solvent”.

With `COc1ccc(CNc2cn[nH]c(=O)c2Cl)cc1OCC(=O)N1CCN(Cc2ccccc2)CC1` [Compound 1, 4-chloro-5-[3-(4-benzylpiperazin-1-yl)carbonylmethoxy-4-methoxybenzylamino]-3(2H)-pyridazinone], in series [4], the “AUC (0-.infin.)” value was determined as 844.3 ng·h/mL and the Cmax (in general, the peak of the concentration-time curve) is 249.7 ng/mL.

On to `COc1ccc(CNc2cn[nH]c(=O)c2Cl)cc1OCC(=O)N1CCN(Cc2ccccc2)CC1` [Compound 2, 3/2-Hydrochloride of 4-chloro-5-[3-(4-benzylpiperazin-1-yl)carbonylmethoxy-4-methoxybenzylamino]-3 (2H) -pyridazinone], for which the pharmaceutical effect entry in series [2] was “equivalent to that of 2-hydrochloride”. In series [3] (Time 0), this molecule had a Water content of 2.03%. For the same molecule, in series [3] (Time 1), the “Increased decomposed material content” value is reported as 0.06% and the Water content is 2.42%. In addition, in series [3] (Time 24), the “Increased decomposed material content” value amounted to 0.17% and the Water content came out at 2.34%. Further, in series [3] (Time 48), the “Increased decomposed material content” value worked out at 0.18% and the Water content stood at 2.57%. In series [4], the “AUC (0-.infin.)” value was determined as 1998.3 ng·h/mL and the Cmax stood at 1349.0 ng/mL. For the same molecule, in series [4] (setting [5]), the “area under the curve (AUC) of time-concentration in blood (0-.infin.), times more preferable as compared with the compound (1)” value was determined as 2.3 times and the “maximum concentration in blood (Cmax), times higher as compared with the compound (1)” value was found to be 5.4 times.
